From EP2601963B1, “N-ISOVALEROYL-L-GLUTAMYL-L-TRYPTOPHAN AS AN AGENT INHIBITING THE FORMATION OF ULCERS IN THE STOMACH AND THE DUODENUM” (Obshestvo S Ogranichennoj Otvetstvennostju "CytoNIR", priority 2010, dated 2015)

Tests used:
[1] = test system: stress-induced gastric ulcers; assay: Water-immersion stress model: gastric lesions, preventive treatment; type: in vivo, male Wistar rats; set-up: key to GA1 (gastroprotective activity calculated for number of lesions): GA1 = PI of control group / PI of treated group; key to GA2 (gastroprotective activity calculated for lesion size): GA2 = UI of control group / UI of treated group; key to Pauls Index: PI = mean lesions per group × % animals with lesions / 100; key to Ulcer Index: UI = mean lesion area in group × % animals with lesions / 100
Procedure: (§1) All studies were conducted on male Wistar rats weighing 220 ± 20 g, obtained from Rappolovo nursery (Leningrad oblast). For 14 days prior to the experiment, the animals were held in isolation. The animals were handled in accordance with the European Convention for the Protection of Vertebrate Animals used for Experimental and Other Scientific Purposes (Strasburg, 1986). The animals were held in standard plastic cages and fed a standard diet of PK120-3 (granulated feed in accordance with order # 1179 M3 USSR 10/10/1983) with a free access to water.
In each series, the animals were divided into experimental and control groups with 10 rats per group. The animals in the experimental groups were orally administered the claimed preparation or a comparator drug, and the control group animals received distilled water in the same amount.
The experimental animals were divided into 5 groups, 10 animals each. The animals received the following therapy: • control group received distilled water per os; • experimental group 1 received 0.1 mkg/kg N-isovaleroyl-L-glutamyl-L-tryptophan; • experimental group 2 received 10 mkg/kg N-isovaleroyl-L-glutamyl-L-tryptophan; • experimental group 3 received 200 mkg/kg of the comparator drug Sucralfate; • experimental group 4 received 50 mkg/kg of the comparator drug Misoprostol;
The experiment was conducted as follows: • The proposed drug, comparator drugs, and distilled water were administered once daily over 7 days, and on the day of the ulcerogenic stress induction one hour prior to the stress.
The rats deprived of food for 18 hrs. were placed into special cases and immersed in water vertically to the level of their xyphoids. The animals were held in this position for 5 hrs. at 23° C water temperature. After that, the animals were removed from the experiment.
(§2) Animals' body weight changes were monitored throughout the experiment. The experimental animals were then sacrificed by decapitation, and their blood was collected in test tubes. The stomachs were extracted, dissected along the major curve, rinsed with cold saline solution, and the mucosa was carefully examined through a magnifying glass under bright lights. The mucosa was inspected for color, the presence of hyperemia and its intensity. The number of lesions, which were differentiated into small round (less than 1 mm), linear, and large lesions (more than 1mm) and the size of the area they covered were calculated. The average number of lesions per one animal in a group and the percentage of animals with ulcers were also calculated. Pauls Index (PI) was used as an integral indicator of the number of lesions and was calculated as follows: • PI = average number of lesions in a group x % of animals with lesions/100 [Pauls F., Wick A.M.,Mac. Key E.M. et al. An assau method for anti ulcer substances // Gastroenterology.- 1947. #8.- p.p.774 - 782]. Ulcer index UI was calculated as: UI = average lesion area size in the group x % of animals with lesions/100; gastroprotective activity GA1 was calculated as: GA1 = PI of the control group/PI of the experimental group, GA2 = UI of the control group/UI of the experimental group. The proposed drug was considered active when GA ≥ 2.

[2] = test system: indomethacin-induced ulcers; assay: Indomethacin-induced ulcer model, therapeutic treatment: healing of gastric lesions; type: in vivo, male Wistar rats; set-up: key to gastroprotective activity (first value, GA1) / GA1 (gastroprotective activity calculated for number of lesions): GA1 = PI of control group / PI of experimental group; key to gastroprotective activity (second value, GA2): GA2 = UI of control group / UI of experimental group; key to Ulcer Index: UI = average lesion area in group × % animals with lesions / 100; Lesion Size: unit not given here
Procedure: as §1
as §2, with “group.” for “group. The proposed drug was considered active when GA ≥ 2.”
Five groups of 10 animals per group were prepared for the experiment as described in Example 1.
In each series of the experiments, the animals were divided into experimental and control groups at 10 animals per group. The proposed medication or a comparator drug were orally administered to the animals in the experimental group, and the control animals were given distilled water in the same amount. • control group received distilled water per os; • experimental group 1 received 0.1 mkg/kg isovaleroyl glutamyl tryptophan; • experimental group 2 received 10 mkg/kg isovaleroyl glutamyl tryptophan; • experimental group 3 received 200 mkg/kg of the comparator drug Sucralfate.
2 ml/kg of the ulcerogenic dose of indomethacin equal to 30 mg/kg was administered intraperitoneally. The treatment started 24 hrs. post indomethacin administration and continued for 5 days. The animals in the experimental groups received N-isovaleroyl-L-glutamyl-L-tryptophan or the comparator drug Sucralfate, and the control group received distilled water.

[3] = 0.1 mkg/kg, treatment after Indomethacin
[4] = Indomethacin 30 mg/kg + 10 mkg/kg, treatment 5 days

N-isovaleroyl-L-glutamyl-L-tryptophan [VGT preparation]
# Lesions ([1]; 0.1 mkg/kg + stress): 15.4 ± 2.1
% Animals with Ulcers ([1]; 0.1 mkg/kg + stress): 90%
GA1 (gastroprotective activity calculated for number of lesions) ([1]; 0.1 mkg/kg + stress): 1.59
GA2 (gastroprotective activity calculated for lesion size) ([1]; 0.1 mkg/kg + stress): 2.58
Large round Amt. ([1]; 0.1 mkg/kg + stress): 6.9 ± 1.4
Large round Size ([1]; 0.1 mkg/kg + stress): 4.4 ± 1.1
Lesion Size ([1]; 0.1 mkg/kg + stress): 8.7 ± 2.0
Linear Amt. ([1]; 0.1 mkg/kg + stress): 1.5 ± 0.7
Linear Size ([1]; 0.1 mkg/kg + stress): 2.4 ± 1.0
Pauls Index ([1]; 0.1 mkg/kg + stress): 13.9
Small round Amt. ([1]; 0.1 mkg/kg + stress): 7.0 ± 1.4
Small round Size ([1]; 0.1 mkg/kg + stress): 1.9 ± 0.4
Total Amt. ([1]; 0.1 mkg/kg + stress): 15.4 ± 2.1
Total Size ([1]; 0.1 mkg/kg + stress): 8.7 ± 2.0
Ulcer Index ([1]; 0.1 mkg/kg + stress): 7.83
# Lesions ([1]; 10 mkg/kg + stress): 16.3 ± 1.5
% Animals with Ulcers ([1]; 10 mkg/kg + stress): 100%
GA1 (gastroprotective activity calculated for number of lesions) ([1]; 10 mkg/kg + stress): 1.36
GA2 (gastroprotective activity calculated for lesion size) ([1]; 10 mkg/kg + stress): 2.08
Lesion Size ([1]; 10 mkg/kg + stress): 9.7 ± 1.2
Pauls Index ([1]; 10 mkg/kg + stress): 16.3
Ulcer Index ([1]; 10 mkg/kg + stress): 9.7
Large round Amt. ([1]; 10.0 mkg/kg + stress): 5.7 ± 1.1
Large round Size ([1]; 10.0 mkg/kg + stress): 3.4 ± 0.7
Linear Amt. ([1]; 10.0 mkg/kg + stress): 1.4 ± 0.3
Linear Size ([1]; 10.0 mkg/kg + stress): 3.9 ± 1.4
Small round Amt. ([1]; 10.0 mkg/kg + stress): 9.2 ± 1.5
Small round Size ([1]; 10.0 mkg/kg + stress): 2.5 ± 0.4
Total Amt. ([1]; 10.0 mkg/kg + stress): 16.3 ± 1.5
Total Size ([1]; 10.0 mkg/kg + stress): 9.7 ± 1.2
size of lesions smaller than in the control group animals ([1]; stress, both doses): 2.1 - 2.6 times
reduced the size of large lesions ([1]; stress, depending on the dose (0.1 mkg/kg by Table 1)): 2.7 times
reduced the size of large lesions ([1]; stress, depending on the dose (10 mkg/kg by Table 1)): 3.4 times
gastroprotective activity (first value, GA1) [2, 3]: 2
gastroprotective activity (second value, GA2) [2, 3]: 2.6
# Lesions [2, 4]: 6.2 ± 1.3
% Animals with Ulcers [2, 4]: 100%
GA1 (gastroprotective activity calculated for number of lesions) [2, 4]: 1.4
Lesion Size [2, 4]: 23.6 ± 6.1
PI [2, 4]: 6.2
Ulcer Index [2, 4]: 23.6
